Data reported in PMC5309861, “Mechanistic insight into the substrate specificity of 1,2-β-oligoglucan phosphorylase from Lachnoclostridium phytofermentans” (Scientific Reports, 2017).

Biological target: T1, LpSOGP (Lachnoclostridium phytofermentans, UniProt A9KJS6)
T1 construct: gene Cphy_0694
T1 sequence (A9KJS6 1-1113): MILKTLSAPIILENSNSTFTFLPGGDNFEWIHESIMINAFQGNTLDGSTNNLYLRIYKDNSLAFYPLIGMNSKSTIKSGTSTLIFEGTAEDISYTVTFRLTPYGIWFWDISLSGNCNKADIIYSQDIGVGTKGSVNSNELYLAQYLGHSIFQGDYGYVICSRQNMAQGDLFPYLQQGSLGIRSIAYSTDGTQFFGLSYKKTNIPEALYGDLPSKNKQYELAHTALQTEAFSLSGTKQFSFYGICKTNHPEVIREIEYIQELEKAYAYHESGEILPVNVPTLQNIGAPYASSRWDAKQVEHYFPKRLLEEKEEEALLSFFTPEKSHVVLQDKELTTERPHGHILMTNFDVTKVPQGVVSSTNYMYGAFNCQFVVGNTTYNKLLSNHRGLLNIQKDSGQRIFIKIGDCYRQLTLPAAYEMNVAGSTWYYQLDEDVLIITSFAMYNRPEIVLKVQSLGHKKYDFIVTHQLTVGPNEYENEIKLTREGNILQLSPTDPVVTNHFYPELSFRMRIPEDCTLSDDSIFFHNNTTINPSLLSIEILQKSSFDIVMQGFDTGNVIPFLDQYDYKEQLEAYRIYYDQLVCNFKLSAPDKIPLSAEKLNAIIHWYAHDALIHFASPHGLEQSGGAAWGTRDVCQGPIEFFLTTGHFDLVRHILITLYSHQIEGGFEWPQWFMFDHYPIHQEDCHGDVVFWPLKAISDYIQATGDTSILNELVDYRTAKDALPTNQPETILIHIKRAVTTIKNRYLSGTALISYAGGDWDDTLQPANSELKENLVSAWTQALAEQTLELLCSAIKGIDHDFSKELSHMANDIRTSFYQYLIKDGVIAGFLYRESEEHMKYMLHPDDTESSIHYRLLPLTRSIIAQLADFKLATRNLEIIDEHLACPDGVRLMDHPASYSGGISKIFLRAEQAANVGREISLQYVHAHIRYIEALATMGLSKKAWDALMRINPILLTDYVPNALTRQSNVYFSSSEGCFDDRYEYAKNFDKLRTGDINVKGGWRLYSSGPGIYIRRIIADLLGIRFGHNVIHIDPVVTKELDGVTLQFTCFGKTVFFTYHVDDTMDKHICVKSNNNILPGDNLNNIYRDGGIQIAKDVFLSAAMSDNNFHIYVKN
Details: phosphorolysis; pH 7.5, 30 °C; co-substrate oligosaccharide not stated
From the text: G1P release, coupled phosphoglucomutase / G6PDH assay, Michaelis-Menten fit on LpSOGP

O=P(O)(O)O [Pi, inorganic phosphate]
Synthesis / kcat/Km / (s^-1 mM^-1): 11 ± 1 mM
